Test results reported in a melting point compilation (Tetko et al.; mined from patent text by program, amines drawn as free bases though some values may be those of a salt).

Point of comparison: `CCOC(=O)NN=C(c1ccccc1)c1ccncc1`, melting point 189 °C. Against it:
- Cc1ccccc1C(=O)CN1C(=O)C(NC(=O)Nc2cccc(C(=O)NS(C)(=O)=O)c2)CN(c2ccccc2)c2ccccc21 (stereo not drawn) — higher, 210 to 220 °C
- CC1(C)CC(OC(=O)c2ccccc2)CC(C)(C)N1C#N — lower, 150 to 152 °C
- CCC1(CC)c2cc(-c3nc4ccccc4s3)ccc2-c2ccc(N(c3cccc(OC)c3)c3cccc(OC)c3)cc21 — lower, 178 to 180 °C
- CC1=Nc2ccccc2C(=O)C1 — higher, 198 to 200 °C
- CC(=O)NCC1CC(c2ccc(-n3ccc(CO)c3)c(F)c2)=NO1 (single isomer, unassigned; (-)) — lower, 162 to 164 °C
- NC(=O)c1ccc(F)c(-c2cccc3cc(Cc4cccc(C(F)(F)F)c4)sc23)c1 — lower, 139 to 140 °C
- CC(C)CN1CCC(c2ccc(Br)cc2)CC1 — lower, 36 to 37 °C
- CC1CN(c2ccccn2)N=C1N (stereo not drawn) — lower, 149 to 151 °C
- O=C(O)c1cn(-c2ccc(O)cc2)c2cc(F)c(F)cc2c1=O — higher, 288 to 290 °C
- O=C(O)Cc1ccc(N2Cc3ccccc3C2=O)cc1 — higher, 210 to 211 °C
- CCS(=O)(=O)N(CCN(C)C(C)=O)c1ccc(N)cc1 — lower, 140 °C
- COc1ccc(-c2nc(C(F)(F)F)[nH]c2-c2ccc(S(C)(=O)=O)cc2)cc1F — higher, 228 to 234 °C
- Cn1c(C(F)(F)F)cc(=O)n(-c2ccc3snc(COCC(=O)NS(C)(=O)=O)c3c2)c1=O — higher, > 240 °C
- COCC(COC)Nc1cc(C)nn2c(-c3ccc(Cl)cc3Cl)c(C)cc12 — lower, 154 to 155 °C
- COc1c2c(c(OC)c(OC)c1OC)CCC(CCn1cnc3ccccc31)CC2 — lower, 121 to 123 °C
- CCOc1cccc(-c2c(C)c(=O)cc(-c3ccccc3)n2-c2ccccc2)c1 — lower, 146 to 149 °C
- COc1ccc(N2C(=O)C(C)N(c3ccc(Oc4ccc(O)cc4)cc3)C2=S)cc1 (stereo not drawn) — higher, 196 to 198 °C
- CN(C(=N)Nc1cccc2ccccc12)c1cccc2ccccc12 — higher, 249 to 250 °C
- CN(C)CCCOc1c(Cl)cc(-c2nnc(CSCCOc3ccccc3)o2)cc1Cl — lower, 95 to 99 °C
- CCCCCCCCCCCCCCCCCC(CCC(=O)O)(CCC(=O)O)[N+](=O)[O-] — lower, 102 °C
- Cn1nc(Nc2cc(Cl)n[nH]c2=O)cc1CN1CCC1 — lower, 140 to 141 °C
- O=C1OCc2ccccc2C1=NO — lower, 181 to 185 °C
- COc1ccc(C(=O)Nc2ccccc2)cc1NS(=O)(=O)c1sc(NC(C)=O)nc1C — higher, 260 to 261 °C
- COC(=O)CCn1nnnc1C1N2C(=O)C(NC(c3ccccc3)(c3ccccc3)c3ccccc3)C2SC1(C)C (stereo not drawn) — lower, 94 to 98 °C
- C1=CC(CCC2c3ccccc3-c3ccccc32)c2ccccc21 (stereo not drawn) — lower, 79 to 80 °C
- CCOC(=O)[C@H]1O[C@@H]1C(=O)N[C@H](COCC(C)C)C(C)C — lower, 40.5 to 45 °C
- Cc1ccccc1C(=O)CN1C(=O)C(NC(=O)Nc2cccc(C(=O)NO)c2)CN(C(=O)C(C)(C)C)c2ccccc21 (stereo not drawn) — higher, 192 to 196 °C
- CCOCc1nc2c(N)nc3cc(N4CCCCC4=O)ccc3c2n1CCCOC(C)C — higher, 205 to 206 °C
- CCOC(=O)c1cc2c3ccccc3[nH]c(=O)n2n1 — higher, 242 to 244 °C
- COc1nc(C)cnc1NS(=O)(=O)c1cccnc1-c1ccc(CCC(=O)O)cc1 — lower, 166 to 168 °C
- Cc1ccc(N2C(=O)C(O)=C(C(=O)c3ccc(C(C)C)cc3)C2c2ccc(OC(C)C)cn2)nn1 (stereo not drawn) — higher, 243 to 245 °C
- O=C(O)CCCNC(=O)c1cc(Br)no1 — lower, 140 to 141 °C
- O=C(O)C(Cc1ccccc1)Oc1c(Br)cc(-c2ccc(-c3c(Cc4ccccc4)oc4ccccc34)cc2)cc1Br (stereo not drawn) — lower, 90 to 92 °C
- CC(C)(C)c1cccc(C[C@@H](NC(=O)c2cccc3c2C=CCCC3)[C@@H](O)c2cccc(Cl)c2)c1 (racemic) — lower, 104 to 105 °C
- Cn1cc(C2=C(c3c4n(c5ccccc35)CCN(C(=O)OC(C)(C)C)C4)C(=O)OC2=O)c2ccccc21 — lower, 125 to 127 °C
- Cc1cccc(-c2nnc(-c3ccccc3Cc3ccccc3)nn2)c1 — lower, 90 to 91 °C
- O=C(CC1CCCCC1)c1c(O)c2cccnc2n(-c2ccccc2)c1=O — higher, 231 to 233 °C
- COc1cc(N2CCC(N3CCCN(CCO)CC3)CC2)ccc1Nc1ncc2ccc(-c3ccccc3N(C)S(C)(=O)=O)n2n1 — lower, 91 to 104 °C
- C=CCc1ccc(OCc2ccc(OC)cc2)cc1 — lower, 59 to 61 °C
- CC(=O)Nc1ccc(-c2cccc(-n3c(-c4cccnc4N)nc4cc(-c5cccc(NC(C)=O)c5)c(-c5cccnc5)nc43)c2)cc1 — lower, 166 to 168 °C
- CC12CCCc3cc(NS(=O)(=O)c4ccc(C(=O)O)cc4)cc(c31)CCC2 — higher, 215 to 217 °C
- COc1ccn2nc(-c3ccccc3)c(-c3ccc(=O)n(C4CCOC4)n3)c2c1 (stereo not drawn) — higher, 207 to 208 °C
- Nc1nc(-c2ccco2)c(C(=O)C2CCC(=O)CC2)s1 — higher, 232 to 235 °C
- COC(=Cc1ncn(C(c2ccccc2)(c2ccccc2)c2ccccc2)c1C)C(=O)c1cccc2ccccc12 — higher, 220 to 222 °C
- O=c1[nH]c2ccc(C=CCN3CCC(Cc4ccc(F)cc4)CC3)cc2o1 — higher, 202 to 204 °C
- CCNC(=O)c1c(Cl)cccc1[Si](C)(C)C(C)(C)C — lower, 140 to 142 °C
- COc1ccc(CN(CCCC(N)=O)Cc2ccc(OC)cc2)cc1 — lower, 53 to 54 °C
- COC(=O)CCCON1C(=O)c2ccccc2C1=O — lower, 79 to 81 °C
- CC(=O)N(C(C)=O)c1ccc(Br)c([N+](=O)[O-])c1OCc1ccccc1 — lower, 148 °C
- Cn1c2cc(Cl)cc(Cl)c2c2cc(C(=O)O)sc21 — higher, 278 to 281 °C
- COC(=O)c1ccn2cc(Cc3cccc(F)c3C)c(-c3ccccc3)c2c1 — lower, 55 °C
- CCOC(=O)N1CCN(c2ccc(C3=NNC(=O)CC3C)cc2Cl)CC1 (stereo not drawn) — lower, 154 to 156 °C
- Cc1nc[nH]c1CSCCNC1=NCCS(=O)(=O)N1 — lower, 146 to 147 °C
- CCCc1ccc2nnc(C(=O)OCC)cc2c1 — lower, 88 to 89 °C
- CO[C@]12C[C@@H](CN3CCC(O)(c4ccc(Cl)cc4)CC3)CN(C)[C@@H]1Cc1c[nH]c3cccc2c13 — lower, 144 to 148 °C
- N=C(NN=Cc1ccc(OC(F)(F)C(F)F)cc1)NN=Cc1ccc(C(F)(F)F)cc1 — lower, 132 to 137 °C
- COc1cccc(O)c1-c1ccc(C[C@H](NC(=O)c2c(Cl)cccc2Cl)C(=O)O)cc1 — higher, 224 °C
- CCOC(=O)Cn1c2ccccc2c2sccc(=O)c21 — lower, 163 to 165 °C
- CN1C2CCCC1CN(c1ccc3cc([N+](=O)[O-])ccc3n1)C2 — lower, 166 °C
- COC(=O)c1nc(-c2ccc(Cl)c(OC)c2F)nc(N)c1OC — lower, 155 to 158 °C
- COc1cccnc1C(O)c1cc(F)ccc1F (stereo not drawn) — lower, 94 to 95 °C
- CCc1noc(-c2ccc(OCCC3CN(c4ccc(Cl)nn4)CCO3)cc2)n1 (stereo not drawn) — lower, 164 °C
- COc1cc(N=CN(C)C)c(Cl)cc1C(=O)NC1CN2CCC1CC2 (stereo not drawn) — lower, 178 to 180 °C
- C=CNC(=O)n1sc(OCC)nc1=O — lower, 123 °C
- COc1cc(CC2(Cc3ccnc(OC)c3)c3ccccc3-c3ncccc32)ccn1 — lower, 138 to 140 °C
- COc1cc2[nH]c3nc[nH]c(=O)c3c2cc1OC — higher, 296 to 298 °C
- Cc1cc(C(=O)O)cc2c1[nH]c1ccccc12 — higher, > 240 °C
